The values below come from patent US5424428A, “( -)-[[4-(1,4,5,6-tetrahydro-4-methyl-6-oxo-3-pyridazinyl)phenyl]-hydrazono]p r” (Orion-yhtyma Oy, priority 1991, dated 1995).

Molecules are shown by their SMILES. pEC50: −log10 of the molar value. In brackets after ≈: the same amount, converted by molar mass.

Series [1] has as its system right ventricular papillary muscle of guinea-pig. Kind of series: Cardiotonic action in isolated, electrically paced, right ventricular papillary muscle. The class given is cell-based. The following applies: for pEC50: cardiotonic effect, guinea-pig papillary muscle, normal Tyrode's bath solution. Here is the method: Cardiotonic action of the (-) and (+) enantiomers of [[4-(1,4,5,6-tetrahydro-4-methyl-6-oxo-3-pyridazinyl)phenyl]hydrazono]propanedinitrile (I) was studied in isolated, electrically paced, right ventricular papillary muscle of guinea-pig. Experiments were carried out in normal Tyrode's bath solution as described by Otani et al., Japan.

A short description of series [2]: Water solubility in 67 mM phosphate buffer (pH 2). The format is physicochemical. On the procedure: The water solubility of (-) enantiomer and racemic mixture of
[[4-(1,4,5,6-tetrahydro-4-methyl-6-oxo-3-pyridazinyl)phenyl]-
hydrazono]propanedinitrite (l) in 67 mM phosphate buffer (pH 2).

Series [3] in a line: Bioavailability: concentration of total drug in dog plasma after single dose oral administration. The format is in vivo. On the procedure: FIG. 1 is a graph depicting the concentration of total [[4-(1,4,5,6-tetrahydro-4-methyl-6-oxo-3-pyridazinyl)phenyl]hydrazono]propanedinitrile in dog plasma over time after single dose oral administration of the racemate and the (-) enantiomer.
Concentration of total [[4-(1,4,5,6-tetrahydro-4-methyl-6-oxo-3-pyridazinyl)phenyl]hydrazono]propanedinitrile in dog plasma after single dose oral administration of the racemate (1 mg/kg) and (-)-enantiomer (0.5 mg/kg) is shown in FIG. 1. Curve A is for the (-)-enantiomer and curve B is for the racemic [[4-(1,4,5,6-tetrahydro-4-methyl-6-oxo-3-pyridazinyl)phenyl]hydrazono]propanedinitrile.

Series [4] is described as follows: LD50 given intravenously to rats. The following applies: rat, in vivo, intravenous.

What is called pEC50 is −log10 of the EC50, conventionally taken in molar units. As usually defined, the solubility is the dissolved amount per volume that the medium holds. A higher solubility goes with a readily soluble substance. The term LD50 denotes the dose expected to kill half of the subjects tested. In the case of `CC1CC(=O)NN=C1c1ccc(NN=C(C#N)C#N)cc1` (single isomer, unassigned; (-)) [(-) enantiomer, (-)-[[4-(1,4,5,6-Tetrahydro-4-Methyl-6-Oxo-3-Pyridazinyl)phenyl]Hydrazono]Propanedinitrile], the pEC50 in series [1] is 7.22. In series [1] (cardiotonic, ratio (-) vs (+) enantiomer), the “potency of (-) enantiomer relative to (+) enantiomer” value is listed as 47 times. Also, the cardiotonic potency result in series [1] (result in words) is reported as “cardiotonic potency is predominantly due to the optically active (-) enantiomer”. In series [2] (aqueous buffer, water solubility, 67 mM phosphate buffer (pH 2)), this compound displayed a solubility of 29 µg/mL (≈ 103 µM). In addition, the “water solubility of the (-) enantiomer compared to the racemate” value in series [2] (ratio (-) enantiomer / racemate) is recorded as “over 30 fold”. Moreover, in series [3] (dog, single dose oral, racemate 1 mg/kg, (-)-enantiomer 0.5 mg/kg, FIG. 1), the “dose needed to produce the same plasma concentration level of the total drug substance, compared to racemate” value is on record as “less than half dose is needed to produce the same plasma concentration level of the total drug substance”. Besides, in series [3] (result in words), the “bioavailability compared to racemate” value was “superior compared to racemate”. Besides, the LD50 in series [4] was determined as 57 mg/kg.
Compound `CC1CC(=O)NN=C1c1ccc(NN=C(C#N)C#N)cc1` (single isomer, unassigned; (+)) [(+), (+)-[[4-(1,4,5,6-Tetrahydro-4-Methyl-6-Oxo-3-Pyridazinyl)phenyl]Hydrazono]Propanedinitrile] had a pEC50 in series [1] of 5.55.
